The values below come from US4413005A, “Carbamate derivatives and insecticidal, miticidal or nematocidal compositions containing the same” (priority 1981, dated 1983).

The nature of data set [1]: Acute oral toxicity in male mice, LD50 by Litchfield-Wilcoxon method (Test Example 5). The following applies: mouse, in vivo, mortality on the seventh day. The procedure: Compounds of this invention were tested on male mice for acute toxicity by oral administration.
The test system of another data set is warm-blooded animals. The following applies: background statement, known; cited from earlier work.
For another data set, the system named is noxious insects. The following applies: background statement, known; cited from earlier work.

Entries after “also recorded” stand apart in the source; their conditions may differ.

A word on the LD50: it is the dose expected to kill half of the subjects tested. Read a high LD50 as a less toxic substance.

As to `CNC(=O)Oc1cccc2c1OC(C)(C)C2` [carbofuran, 2,3-dihydro-2,2-dimethylbenzofuran-7-yl N-methyl-carbamate], the LD50 at 168 h in data set [1] came out at 5.6 mg/kg. For the same molecule, in the data set with warm-blooded animals, the “toxicity to warm-blooded animals” value is “high toxicity to warm-blooded animals”. Further, the insecticidal activity result in the data set on noxious insects is given as “high insecticidal activity; also recorded: highest insecticidal activity heretofore known”.
